{"source": "patent US12152248B2", "about": "“Membrane-penetrating peptides to enhanced transfection and compositions and methods for using same” (LIFE TECHNOLOGIES CORPORATION, priority 2013, dated 2024)", "assay_type_in_all_cases": "cell-based", "key": {"[1]": {"tested_on": "HEK293, HeLa, COS-7, LNCaP, A549 and HepG2", "assay": "Comparison of transfection reagents, GFP fluorescence images (FIG. 2)", "settings": "panel of six cell lines; pcDNAEF1a/emGFP; 48 hrs; Peptide 1 used with LIPOFECTAMINE® 3000", "protocol": "Transfection complexes for transfecting DNA into cells in culture were prepared according to manufacturer protocol. LIPOFECTAMINE® 2000 and LIPIFECTAMINE® LTX were purchased from Life Technologies Corp. (Carlsbad, CA), FUGENE® HD was purchased from Promega Corp. (Fitchburg, WI), and X-TREMEGENE™ HP was purchased from Roche Diagnostics (Basel, Switzerland).\nTo prepare transfection complexes containing the non-naturally occurring peptides described above, Peptide 1 having the following sequence […] (SEQ ID NO. 89) was synthesized and provided as a dry powder. The dry powder was reconstituted in sterile ultrapure water to a final concentration of 4.35 mg/ml and allowed to fully dissolve. This stock peptide solution was set aside for use in the next step.\nTo prepare the lipid aggregate-DNA-peptide complexes, LIPOFECTAMINE® 3000 reagent (Life Technologies Corp., Carlsbad, CA) was obtained. […]\nFollowing the incubation, the lipid-peptide-DNA complexes were added to cells that were seeded the previous day with fresh growth medium; for 96-well plates, 10 μl of the lipid-peptide-DNA was added to the cells, for 24-well plates, 50 μl of the lipid-peptide-DNA mixture was added to the cells, for 6-well plates, 250 μl of the lipid-peptide-DNA was added to the cells. The cells were incubated in the presence of the lipid-peptide-DNA for approximately 24-48 hrs, and analyzed. […]"}, "HeLa cells [2]": {"tested_on": "HeLa cells", "assay": "GFP transfection with lipid alone, peptide alone or both (FIG. 8)", "settings": "96-well, 48 hrs, Peptide 1 in the presence of LIPOFECTAMINE® 3000, 0.05-0.5 μl", "excerpt": "FIG. 8 are bar graphs depicting relative transfection efficiency (upper graph, GFP+ as % of Single Cells Only) or relative expression level per cell (lower graph; Single cells Only Mean FL-1) of HeLa cells transfected with a GFP expression vector using the indicated doses (in μl) of LIPOFECTAMINE® 3000 alone (LF3K), LIPOFECTAMINE® 2000 (LF2K), a peptide according to an embodiment (Peptide 1) or LIPOFECTAMINE® 3000 in combination with a peptide according to an embodiment (LF3K+ Peptide 1);\nHeLa cells were seeded onto 96-well plates and transfected for 48 hrs with […] of pcDNAEF1a/emGFP using either 0.05 μl, 0.1 μl, 0.2 μl, 0.3 μl, 0.4 μl, or 0.5 μl of LIPOFECTAMINE® 3000 Reagent alone (LF3K), LIPOFECTAMINE® 2000 (LF2K), Peptide 1 alone (Peptide 1), or LIPOFECTAMINE® 3000 in combination with Peptide 1 as described in Example 1 (LF3K+Peptide 1). Transfection efficiency and protein expression as measured by Fluorescence intensity (FL1-H) were determined. Results are depicted in FIG. 8."}, "HeLa cells [3]": {"tested_on": "HeLa cells", "assay": "Effect of transfection reagent dosage on transfection efficiency and GFP expression (FIG. 3)", "settings": "96-well, 0.1-0.4 μl reagent, Peptide 1 with LIPOFECTAMINE® 3000 vs LIPOFECTAMINE® 2000 and LTX", "excerpt": "(§1) FIG. 3A is a graph comparing the relative transfection efficiency for an expression vector encoding GFP transfected into cultured HeLa cells using increasing dosages of three different commercially available lipid aggregate formulations, LIPOFECTAMINE® 2000 (open circles), LIPOFECTAMINE® LTX (open squares), and LIPOFECTAMINE® 3000 in combination with a peptide according to an embodiment (open triangles);\nas §1, with “3B” for “3A”, “intensity of GFP expression in HeLa cells transfected with” for “relative transfection efficiency for”, “GFP” for “GFP transfected into cultured HeLa cells”, “dosage” for “dosages”\nHeLa cells were plated in 96-well plates and transfected with pcDNAEF1a/emGFP using 0.1 μl, 0.2 μl, 0.3 μl or 0.4 μl of LIPOFECTAMINE® 2000, LIPOFECTAMINE® LTX, or LIPOFECTAMINE® 3000 reagent in combination with Peptide 1 as described in Example 1. Transfection efficiency and relative protein expression as measured by […] was determine for each condition. […]"}}, "data": [{"sequence": "SRRARRSPRESGKKRKRKRGGGSGGGSGGGSRRRRRRRRRRR [Peptide 1, 89; MPP DPV10/6 fused to Linker 1 and cationic CP1]", "values": [{"measurement": "transfection efficiency (GFP expression, FIG. 2)", "setting": "[1]", "result": "improved transfection efficiency substantially"}, {"measurement": "transfection efficiency and protein expression (FIG. 8)", "setting": "HeLa cells [2]", "result": "significantly enhances transfection efficiency and protein expression"}, {"measurement": "relative expression of GFP (FIG. 3B)", "setting": "HeLa cells [3]", "result": "improves relative expression of GFP in the cells over the entire range of transfection reagent dosages tested"}, {"measurement": "relative transfection efficiency (FIG. 3A)", "setting": "HeLa cells [3]", "result": "improves transfection efficiency of the cells over the entire range of transfection reagent dosages tested"}]}]}
